Source: patent publication US9232799B2, “N-[(het)arylethyl)] pyrazole(thio)carboxamides and their heterosubstituted analogues” (BAYER INTELLECTUAL PROPERTY GMBH, priority 2010, dated 2016)

What was measured:
Pyrenophora teres = experiment: In vivo preventive test on Pyrenophora teres (barley); details: 500 ppm of active ingredient, evaluated 7-9 days after inoculation
From the text: One day after this treatment, the plants are inoculated with an aqueous spore suspension of Pyrenophora teres.

[1] = logP by HPLC on reversed-phase column (C 18), EEC Directive 79/831 Annex V.A8; type: physicochemical
Procedure: In table 1, the logP values were determined in accordance with EEC Directive 79/831 Annex V.A8 by HPLC (High Performance Liquid Chromatography) on a reversed-phase column (C 18), using the method described below: Temperature: 40° C.; […]

aflatoxines production = experiment: microbe, parasite or virus in culture; type: cell-based, Aspergillus parasiticus; details: 50 μM
Alternaria solani = experiment: In vivo preventive test on Alternaria solani (tomato); details: 500 ppm of active ingredient, evaluated 7 days after inoculation
From the text: One day after this treatment, the plants are inoculated with an aqueous spore suspension of Alternaria solani.

Fusarium graminearum = experiment: microbe, parasite or virus in culture; type: cell-based; details: 50 μM
Sphaerotheca fuliginea = experiment: In vivo preventive test on Sphaerotheca fuliginea (cucumber); details: 500 ppm of active ingredient, evaluated 7 days after inoculation
From the text: One day after this treatment, the plants are inoculated with an aqueous spore suspension of Sphaerotheca fuliginea.

Leptosphaeria nodorum = experiment: In vivo preventive test on Leptosphaeria nodorum (wheat); details: 500 ppm of active ingredient, evaluated 7-9 days after inoculation
From the text: One day after this treatment, the plants are inoculated with an aqueous spore suspension of Leptosphaeria nodorum.

Row | Structure (SMILES) | Efficacy (Pyrenophora teres) | logP [1] | % Inhibition of Aflatoxin at 50 μM (aflatoxines production) | Efficacy (Alternaria solani) | % Inhibition of fungal growth at 50 μM (Fusarium graminearum) | Efficacy (Sphaerotheca fuliginea) | Efficacy (Leptosphaeria nodorum)
1 | CC(Cc1ccc(Cl)cc1Cl)NC(=O)c1c(C(F)F)nn(C)c1Cl (stereo not drawn) [Example 68] | 100% | 3.67 | 100% | 95% | 100% | 99% | –
2 | Cn1nc(C(F)F)c(C(=O)NC2CC2c2ccccc2C(F)(F)F)c1F (stereo not drawn) [Example 225] | 100% | 3.00 | 97% | 95% | 83% | 80% | –
3 | Cn1nc(C(F)F)c(C(=O)NC2CCCCC2c2ccccc2)c1Cl (stereo not drawn) [Example 215] | 100% | 3.51 | – | 78% | – | 93% | –
4 | Cn1nc(C(F)F)c(C(=O)N(C2CC2)C2CCCCC2c2ccccc2Cl)c1F (stereo not drawn) [Example 216] | 95% | 4.49 | 100% | 71% | 84% | 100% | –
5 | Cn1nc(C(F)F)c(C(=O)NC2CC2c2cccc(F)c2)c1F (stereo not drawn) [Example 222] | 100% | 2.59 | 99% | – | 81% | – | 90%
6 | Cc1scc(CCNC(=O)c2c(C(F)F)nn(C)c2F)c1C [Example 167] | 100% | 2.82 | 100% | 100% | 100% | 90% | –
7 | COC(CNC(=S)c1c(C(F)F)nn(C)c1F)c1cc(Cl)cc(Cl)c1 (stereo not drawn) [Example 110] | 100% | 4.19 | – | 80% | – | 75% | –
8 | Cn1nc(C(F)F)c(C(=O)NCC(C)(C)c2cc(Cl)ccc2Cl)c1Cl [Example 101] | 70% | 3.89 | 100% | 100% | 86% | 83% | –
9 | Cn1nc(C(F)F)c(C(=O)NCC(C)(C)c2ccc(Cl)cc2Cl)c1F [Example 87] | 94% | 3.81 | 100% | 95% | 94% | – | 70%
10 | Cn1nc(C(F)F)c(C(=O)N(C[Si](C)(C)c2ccsc2)C2CC2)c1F [Example 248] | 100% | 3.55 | 100% | 94% | 100% | – | 94%
11 | CC(Cc1ccc(Cl)cc1Cl)NC(=S)c1c(C(F)F)nn(C)c1Cl (stereo not drawn) [Example 69] | – | 4.29 | 100% | 94% | 86% | 95% | –
12 | CC(CN(C(=S)c1c(C(F)F)nn(C)c1Cl)C1CC1)c1ccccc1 (stereo not drawn) [Example 16] | 100% | 4.11 | – | 95% | – | – | 95%
13 | Cn1nc(C(F)F)c(C(=O)N(C2CC2)C2CCCCC2c2ccc(Cl)cc2Cl)c1F (stereo not drawn) [Example 217] | – | 5.05 | – | – | – | 99% | –
14 | Cn1nc(C(F)F)c(C(=S)NCCc2ccc(Cl)cc2Cl)c1F [Example 71] | 100% | 3.99 | – | 94% | – | 85% | –
15 | CC(Cc1ccc(Oc2ccccc2)cc1)NC(=S)c1c(C(F)F)nn(C)c1F (stereo not drawn) [Example 156] | 100% | 4.29 | – | 89% | – | 93% | –
16 | CC(CNC(=O)c1c(C(F)F)nn(C)c1F)c1ccc(C(F)(F)F)cc1 (stereo not drawn) [Example 127] | 100% | 3.25 | 100% | 100% | 100% | – | –
17 | CCC(CNC(=O)c1c(C(F)F)nn(C)c1Cl)c1ncc(C(F)(F)F)cc1Cl (stereo not drawn) [Example 193] | 100% | 3.73 | 100% | 100% | 91% | 83% | –
18 | Cn1nc(C(F)F)c(C(=O)NC(C)(C)Cc2ccc(Oc3ccccc3)cc2)c1F [Example 150] | 78% | 4.19 | – | 95% | – | 100% | –
19 | Cn1nc(C(F)F)c(C(=O)NCCc2cccc(Cl)c2)c1Cl [Example 49] | 94% | 2.92 | 100% | 100% | 91% | – | –
20 | Cn1nc(C(F)F)c(C(=O)NC(C)(C)Cc2ccc(Oc3ccccc3)cc2)c1Cl [Example 153] | 80% | 4.39 | – | 95% | – | 93% | –
21 | Cn1nc(C(F)F)c(C(=O)NC[Si](C)(C)c2ccccc2)c1F [Example 228] | 100% | 3.13 | 100% | 100% | 93% | – | –
22 | Cc1cccnc1CC(NC(=O)c1c(C(F)F)nn(C)c1F)C(F)(F)F (stereo not drawn) [Example 185] | 94% | 1.52 | 100% | 95% | 87% | – | –
23 | Cn1nc(C(F)F)c(C(=O)NC[Si](C)(C)c2ccccc2)c1Cl [Example 227] | 100% | 3.31 | 87% | 95% | 71% | – | –
24 | CC(CNC(=O)c1c(C(F)F)nn(C)c1Cl)c1cccc(C(F)(F)F)c1 (stereo not drawn) [Example 125] | 100% | 3.35 | 99% | 95% | 78% | – | –
25 | Cn1nc(C(F)F)c(C(=O)NCCc2cccc(Cl)c2)c1F [Example 47] | 100% | 2.75 | 100% | 100% | 100% | – | –
26 | CC(CNC(=O)c1c(C(F)F)nn(C)c1F)c1ccc(Cl)cc1Cl (stereo not drawn) [Example 84] | 100% | 3.46 | 100% | 95% | 100% | – | –
27 | CC(Cc1ccccc1Cl)NC(=S)c1c(C(F)F)nn(C)c1Cl (stereo not drawn) [Example 38] | 100% | 3.72 | – | 89% | – | 85% | –
28 | CC(Cc1ccccc1Cl)NC(=S)c1c(C(F)F)nn(C)c1F (stereo not drawn) [Example 37] | 100% | 3.61 | 94% | 94% | 78% | 98% | –
29 | Cn1nc(C(F)F)c(C(=O)N(CCc2ccccc2)C2CC2)c1Cl [Example 12] | 100% | 3.06 | 100% | 100% | 92% | – | –
30 | CC(Cc1ccccc1F)N(C(=S)c1c(C(F)F)nn(C)c1F)C1CC1 (stereo not drawn) [Example 21] | 100% | 4.01 | – | 95% | – | 100% | –
